Assay results from patent US20190201419A1, “COMPOUND AND METHOD FOR THE TREATMENT AND DIAGNOSIS OF NEURODEGENERATIVE CONDITIONS” (Swansea University, priority 2013, published 2019).

Columns and labels:
Lxrα = molecular target: T1, Lxrα (Homo sapiens, UniProt Q13133); assay: Lxrα luciferase reporter assay in SN4741 neural cells; assay type: cell-based, mouse; details: for Lxrα activation, luciferase activity (fold activation): 10 μM, 24 h
T1 construct: expressed in transfected cells; host or cells: SN4741 mouse neuronal cell line
T1 sequence (Q13133 1-447): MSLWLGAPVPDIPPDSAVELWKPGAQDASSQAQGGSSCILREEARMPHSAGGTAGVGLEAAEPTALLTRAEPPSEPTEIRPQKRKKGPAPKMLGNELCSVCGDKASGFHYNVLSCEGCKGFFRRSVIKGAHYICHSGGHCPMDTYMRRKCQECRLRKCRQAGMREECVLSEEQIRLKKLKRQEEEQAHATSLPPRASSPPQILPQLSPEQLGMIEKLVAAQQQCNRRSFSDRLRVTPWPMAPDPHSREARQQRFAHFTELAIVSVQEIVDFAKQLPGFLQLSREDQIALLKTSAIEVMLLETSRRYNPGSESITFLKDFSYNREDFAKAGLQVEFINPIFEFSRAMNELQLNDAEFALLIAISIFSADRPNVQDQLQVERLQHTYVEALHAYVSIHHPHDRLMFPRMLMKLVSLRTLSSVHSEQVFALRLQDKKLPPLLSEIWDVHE
Text: (§1) Luciferase Reporter Assay.

Lxrβ = molecular target: T2, Lxrβ (Homo sapiens, UniProt P55055); assay: Lxrβ luciferase reporter assay in SN4741 neural cells; assay type: cell-based, mouse; details: for Lxrβ activation, luciferase activity (fold activation): SN4741 cells, 10 μM, 24 h
T2 construct: expressed in transfected cells; host or cells: SN4741 mouse neuronal cell line
T2 sequence (P55055 1-460): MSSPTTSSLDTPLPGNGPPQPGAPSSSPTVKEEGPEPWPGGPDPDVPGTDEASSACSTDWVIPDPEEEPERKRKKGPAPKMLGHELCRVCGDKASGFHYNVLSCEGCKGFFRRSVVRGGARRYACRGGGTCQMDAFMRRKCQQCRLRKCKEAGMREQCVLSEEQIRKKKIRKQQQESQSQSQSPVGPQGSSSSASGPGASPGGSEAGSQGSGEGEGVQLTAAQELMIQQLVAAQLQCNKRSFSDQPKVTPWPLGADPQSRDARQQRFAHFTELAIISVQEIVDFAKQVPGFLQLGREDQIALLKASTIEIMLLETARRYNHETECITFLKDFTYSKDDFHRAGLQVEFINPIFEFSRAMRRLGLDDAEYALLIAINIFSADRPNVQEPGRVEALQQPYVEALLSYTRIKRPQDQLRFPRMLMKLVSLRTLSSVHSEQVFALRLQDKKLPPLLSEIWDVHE
Text: as §1

Lxrβ-LBD = molecular target: T3, Lxrβ-LBD (Homo sapiens, UniProt P55055); assay: Lanthascreen TR-FRET Lxrβ coactivator assay; assay type: binding
T3 construct: the Lxrβ-LBD tagged with glutathione-S-transferase (GST); purchased Invitrogen
T3 sequence (P55055 222-460 limits assumed): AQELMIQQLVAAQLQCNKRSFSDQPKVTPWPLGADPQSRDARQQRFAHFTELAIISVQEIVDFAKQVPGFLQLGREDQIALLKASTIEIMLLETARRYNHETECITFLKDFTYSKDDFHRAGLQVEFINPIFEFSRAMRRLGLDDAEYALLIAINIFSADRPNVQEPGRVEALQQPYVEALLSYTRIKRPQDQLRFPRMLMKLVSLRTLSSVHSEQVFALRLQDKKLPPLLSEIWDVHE
Text: Lxrβ Ligand Binding Assay. For Lxrβ ligand binding activity measurement, the applicants used the Lanthascreen™ TR-FRET Lxrβ Coactivator Assay (Invitrogen). The assay uses a terbium (Tb)-labeled anti-GST antibody, a fluorescein-labeled coactivator peptide and the Lxrβ-LBD tagged with glutathione-S-transferase (GST). Binding of the agonist/ligand to Lxrβ-LBD causes a conformational change that result in an increase in the affinity of the Lxrβ for the coactivator peptide. The close proximity of the fluorescently labeled coactivator peptide to the Tb-labeled antibody causes an increase in the TR-FRET signal intensity. The TR-FRET ratio of 520/495 was calculated using a Victor multi label reader with an excitation wavelength of 340 nm and emission wavelengths of 520 nm and 495 nm, The activational capacity of potential ligands was tested in a […] polypropylene plate, following the manufacturer's protocol.

[1] = tested on: Abca1, Abcg1 and Srebf1 transcript levels; assay: Quantitative PCR of Lxr target genes in SN4741 cells; assay type: cell-based, mouse; details: 3 h
Protocol: (§2) Quantitative PCR, Total RNA was extracted from SN4741. cells and zebrafish treated with the compounds of interest using the RNeasy Mini Kit (Qiagen), 1 μg was treated with RQ1 RNase-free DNase (Promega) and reverse transcribed using SuperScript II Reverse Transcriptase (invitrogen) and random primers (invitrogen) (RT+reaction). Parallel reactions without reverse transcriptase enzyme were done as a control (RT−reaction), and Sybergreen real-time quantitative PCR assays were performed. Expression levels were obtained by normalization with the Value of the housekeeping gene encoding actin obtained for every sample in parallel assays.

zebrafish embryos = assay: Survival of transgenic zebrafish embryos on compound exposure; assay type: in vivo
Protocol: (§3) Zebrafish Strain and Maintenance Zebrafish were raised on a 14/10 h day/night cycle and were kept at 28.5 ° C. Islet-1:GFP transgenic embryos were obtained via natural spawning and staged in hours or days post fertilization (hpf and dpt) according to Kimmel et al). Embryos older than 24 hpf were treated with 0.03% phenylthiourea (PTU) to inhibit pigmentation. MO injections were performed using splice site specific zebrafish lxi MO MO injected embryos were immediately dechorionated and transferred to a 96 well plate and exposed to dimethyl sulfoxide (DMSO) treated or ligand treated medium. Compound Exposure. Islet-1:GFP embryos were collected by natural mating and immediately (at 1 cell stage) dechorionated and transferred to a 96 well plate. Each of the compounds tested were obtained as 10 mM stock and diluted in embryo medium to a final concentration of 10 μM, and 200 μL was added to each well. DMSO or propan-2-ol treated embryo medium was taken as control. Ligand solutions were replaced every 12 h with fresh ligand solution prepared in PTU treated embryo medium. Embryos were collected at 48 hpf, fixed for 4 h at room temperature with 4% paraformaldehyde and then washed and kept in PBST. Immunocytochemistry was performed using an anti-GFP antibody and fluorescence was viewed and photographed using a Zeiss Axioplan compound microscope and a Zeiss Axiocam digital camera.

[2] = tested on: Islet1+ oculomotor neurons; assay: Islet1+ cells in mouse E11.5 brain primary cultures; assay type: cell-based; details: for Number of Islet1+ cells / Concentration giving significant difference from vehicle in Islet1+ cells: wild type cultures; for Concentration giving significant difference from vehicle in Islet1+ cells: p<0.05; for Effect on Islet1+ cells in Lxrα−/−β−/− cultures: cultures from Lxrα−/−β−/− mice; for Effect on Islet1+ cells with Lxr antagonist GGPP: wt cultures, 10 μM GGPP
Protocol: (§4) Primary Brain Cultures. Brains from E11.5 mice were manually dissected, plated on poly-D-lysine (150,000 cells/cm^2) and grown in serum-free N2 media consisting of 1:1 mixture of F12 and DMEM with 10 ng/mL insulin, 100 μg/mL apo-transferrin, 100 μM putrescine, 20 nM progesterone, 30 nM selenium, 6 mg/mL glucose, and 1 mg/mL BSA. Cells were treated for 3 days in vitro (DIV) with the compounds of interest, fixed with 4% PFA and processed for staining using appropriate antibodies.
(§5) Antibodies and Detection Procedures. Cells were fixed in 4% PFA, washed in PBS and blocked in 5% normal goat serum/PBS for 1 h at room temperature. Primary antibodies were diluted in PBS (pH 7.4), 0.3% Triton X-100, 1% BSA and incubations were carried out overnight at +4° C. or at room temperature for 2 h. The antibodies used were anti-:BrdU (1:400; Abeam), Islet-1 (1:100: Developmental Studies Hybridoma Bank), cleaved caspase-3 (Aspt 75) (1:100; Cell Signaling Technology), tyrosine hydroxylase (TH; 1:1000; Pel-Freeze) GABA (1:1,000; Sigma), Bm3a (1:250; Millipore), Nkx6.1 (1:200; Novus Biologicals), choline acetyltransferase (ChAT; 1:500; Millipore) and appropriate secondary antibodies (Jackson ImmunoResearch or Alexa). Cells positive for the corresponding marker were counted directly at the microscope at a magnification of 20×. Cells were counted in every well, in eight consecutive fields (going from one side of the well to the other, passing through the center), in three different wells per experiment and in three different experiments per condition. Random pictures of the wells were taken for every condition to document the result, and representative pictures were subsequently selected to represent the quantitative data. Photos were acquired with a Zeiss Axioplan microscope and a Hamamatsu camera C4742-95 using the Openlab software.

active caspase 3+ cells = assay: Active caspase 3+ cells in mouse E11.5 brain primary cultures; assay type: cell-based; details: for Number of active caspase-3+ cells: wt cultures, 3β,7α-diHCA, 3βH,7O-CA, 25-HC at 10 μM, toxic acids at low concentrations
Protocol: as §4, §5

Islet-1 = Islet-1 expression in Tg[Isl1:GFP] zebrafish embryos; assay type: in vivo; details: 10 μM
Protocol: as §2, §3

abca1 = abca1 expression in zebrafish embryos; assay type: in vivo; details: 10 μM
Protocol: as §2
Zebrafish Strain and Maintenance Zebrafish were raised on a 14/10 h day/night cycle and were kept at 28.5 ° C. Islet-1:GFP transgenic embryos were obtained via natural spawning and staged in hours or days post fertilization (hpf and dpt) according to Kimmel et al). Embryos older than 24 hpf were treated with 0.03% phenylthiourea (PTU) to inhibit pigmentation. […] Immunocytochemistry was performed using an anti-GFP antibody and fluorescence was viewed and photographed using a Zeiss Axioplan compound microscope and a Zeiss Axiocam digital camera.

[3] = tested on: TH+ dopamine neurons, GABAergic or red nucleus neurons; Nkx6.1+ cells; assay: Other cell types in mouse E11.5 brain primary cultures; assay type: cell-based; details: data not shown
Protocol: as §4, §5

[4] = LC-ESI-MSn of cholestenoic acids in mouse brain; details: 23 month old male Cyp7b1−/− mice
Text: Animals. Lxra,−/−β−/− mouse cell cultures were from the colony at the Department of Biosciences and Nutrition at Novum, Karolinska Institutet. Male and female wild-type and Lxrα−/−β−/− mice were generated as previously described (Alberti et al. J. Clin. Invest 2001:107(5), 565-73). Mice were back crossed onto a C57BL/6 background for 10 generations. Male Cyp7b1−/− mouse brain and plasma were from animals generated at the University of Edinburgh. Male mice homozygous for targeted disruption of the Cyp7b1 gene congenic on the C57BL/6 genetic background (>15 generations backcrossed to C57BL/6) and wild-type littermate controls were generated from Cyp7b1−/+ crosses. Male cyp27a1−/− mouse tissue and plasma was purchased from The Jackson Laboratory (ME, USA) strain B6.129-Cyp27a1^tm1Elt/J. The Cyp27a1−/− colony was backcrossed to C57BL/6J inbred mice for approximately 12 generations by the donating investigator prior to sending to The Jackson Laboratory Repository. Upon arrival, mice were bred to C57BL/6J inbred mice for at least one generation to establish the colony. Wild type animals from the colony were used as controls.
Extraction of Sterols. […]
Charge Tagging of Sterols. The sterols were charge-tagged with the GP-hydrazine to enhance their response when analysed by LC-ESI-MS and tandem mass spectrometry (MS^n).

Row | Compound | Lxrα activation, luciferase activity (fold activation) (Lxrα) | Lxrβ activation, luciferase activity (fold activation) (Lxrβ) | Number of Islet1+ cells [2] | Concentration giving significant difference from vehicle in Islet1+ cells [2] | Number of active caspase-3+ cells (active caspase 3+ cells) | Islet-GFP expression (Islet-1; embryos 48 hpf) | Effect on Islet1+ cells in Lxrα−/−β−/− cultures [2] | Effect on Islet1+ cells with Lxr antagonist GGPP [2] | also measured
1 | CC(CCC[C@@H](C)[C@H]1CC[C@H]2[C@@H]3[C@@H](O)C=C4C[C@@H](O)CC[C@]4(C)[C@H]3CC[C@]12C)C(=O)O (stereo partly drawn) [3β,7β-diHCA, 3β,7β-dihydroxycholest-5-en-26-oic acid] | have the ability to activate both Lxrs | have the ability to activate both Lxrs | caused the loss of Islet1+ cells in the cultures | ≥ 2 µM | increased the number of active caspase-3+ cells | – | – | – | Lxr activational capacity in combination with 22R-HC (Lxrβ; 10 μM acid + 10 μM 22R-HC): No additive effect was observed; Competition with the effect of 3β,7α-diHCA in TR-FRET (Lxrβ-LBD; 3β,7α-diHCA at 10 μM plus increasing concentrations of competitor): the effect of 3β,7α-diHCA was reduced to that of the latter acids; Competitor concentration giving significant difference from 10 μM 3β,7α-diHCA alone in TR-FRET (Lxrβ-LBD; p<0.05 vs 10 μM 3β,7α-diHCA): ≥ 2; Abca1, Abcg1 and Srebf1 transcript levels [1]: induced transcription, but to a lesser extent; Toxic effect on survival of the fish (zebrafish embryos): had a deleterious toxic effect which impaired the survival of the fish; Surviving cells in cultures (active caspase 3+ cells; 10 μM): no surviving cells were detected; Concentration at which toxicity is initiated (active caspase 3+ cells; mouse, primary brain cultures from E11.5 mouse embryos, 3 days): 1000 nM; Concentration giving significant difference from vehicle in active caspase 3+ cells (active caspase 3+ cells; p<0.05): ≥ 2 µM
2 | CC(CCC[C@@H](C)[C@H]1CC[C@H]2[C@@H]3C(=O)C=C4C[C@@H](O)CC[C@]4(C)[C@H]3CC[C@]12C)C(=O)O (stereo partly drawn) [3βH,7O-CA, 3β-hydroxy-7-oxocholest-5-en-26-oic acid] | have the ability to activate both Lxrs | have the ability to activate both Lxrs | increased the number of Islet1+ oculomotor cells in the cultures | ≥ 10 µM | did not affect the number of active caspase-3+ cells | increased Islet-GFP expression | eliminated | blocked by the Lxr antagonist GGPP | Islet-1 mRNA and protein level (qPCR, western blot) (Islet-1): accompanied by an increase in the level of Islet-1 mRNA and protein; Number of Islet1+ cells in cranial nerves (III, IV, V, VII, X) (Islet-1; embryos 48 hpf): had no significant effect on the number of Islet1+cells; Islet-GFP levels after lxr morpholino injection (Islet-1; lxr MO vs control scrambled MO): lxr MO injections abolished the in vivo increase in Islet-GFP levels; abca1 expression (abca1): enhanced expression of abca1; Number of other midbrain neurons (TH+ dopamine, GABAergic, red nucleus) [3]: did not affect the number of other midbrain neurons
3 | C[C@H](CCCC(C)(C)O)[C@H]1CC[C@H]2[C@@H]3CC=C4C[C@@H](O)CC[C@]4(C)[C@H]3CC[C@]12C [25-HC, cholest-5-ene-3β,25-diol] | activate Lxr | activate Lxr | increase the number of Islet1+ oculomotor cells | – | reduced the number of active caspase-3+ cells | induced a modest increase in the levels of islet-1 | blocked in cultures from Lxrα−/−β−/− animals | inhibited by the Lxr antagonist GGPP | Lxr luciferase activity with addition of the Lxr antagonist GGPP (Lxrα; 10 μM metabolite + 10 μM GGPP): similarly blocked; Level in Cyp7b1−/− mouse brain [4]: > 2 ng/mg
